In this assay the target is T1, vanilloid receptor (Rattus norvegicus, UniProt O35433).
T1 construct: DRG nerve cells from the primary culture of 2 days were equilibrated; endogenous in cells; host or cells: primary culture of dorsal root ganglion neurons from neonatal SD rats
T1 sequence (O35433 whole entry): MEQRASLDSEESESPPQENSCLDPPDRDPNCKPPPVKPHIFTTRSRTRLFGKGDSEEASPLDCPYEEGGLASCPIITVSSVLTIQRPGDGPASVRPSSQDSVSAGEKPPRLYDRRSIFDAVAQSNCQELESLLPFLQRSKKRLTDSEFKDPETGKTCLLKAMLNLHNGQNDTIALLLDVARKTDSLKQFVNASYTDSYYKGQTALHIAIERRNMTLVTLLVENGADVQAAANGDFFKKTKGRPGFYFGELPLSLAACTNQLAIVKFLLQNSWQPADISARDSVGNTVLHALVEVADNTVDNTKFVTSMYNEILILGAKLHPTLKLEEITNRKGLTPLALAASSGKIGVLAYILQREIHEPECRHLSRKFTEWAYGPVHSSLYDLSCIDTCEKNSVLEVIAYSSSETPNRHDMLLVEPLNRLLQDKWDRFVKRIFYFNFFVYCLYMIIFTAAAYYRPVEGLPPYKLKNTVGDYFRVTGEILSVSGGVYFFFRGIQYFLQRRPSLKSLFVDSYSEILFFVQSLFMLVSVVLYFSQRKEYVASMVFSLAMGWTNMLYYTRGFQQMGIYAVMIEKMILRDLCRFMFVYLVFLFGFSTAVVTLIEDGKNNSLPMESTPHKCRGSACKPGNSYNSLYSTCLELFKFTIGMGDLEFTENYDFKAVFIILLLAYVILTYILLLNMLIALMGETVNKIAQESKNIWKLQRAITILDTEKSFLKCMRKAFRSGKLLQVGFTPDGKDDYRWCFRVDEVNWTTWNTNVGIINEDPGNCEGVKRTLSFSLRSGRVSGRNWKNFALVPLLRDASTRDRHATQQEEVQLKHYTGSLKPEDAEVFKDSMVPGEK
Kind of assay: 45Ca influx test in cultured neonatal rat DRG neurons, inhibition of capsaicin response. It counts as cell-based. To be noted: neonatal rat DRG neurons, capsaicin 0.5 μM, 45Ca influx; read-out: Antagonist Calcium Uptake Test (IC50). Summed up:
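45Ca influx measured by scintillation counting of SDS-eluted neurons after 10 min at room temperature with test compound, 0.5 μM capsaicin (final) and 10 μCi/ml 45Ca in Ca/Mg-free HEPES-HBSS pH 7.4. Cells: primary DRG neurons from newborn SD rats, cultured 2 days with NGF and Ara-C.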
With `CCCN(C)c1nc(C(F)(F)F)ccc1/C=C/C(=O)NCc1ccc(NS(C)(=O)=O)c(F)c1` [Example 158, N-(3-Fluoro-4-methanesulfonylamino-benzyl)-3-[2-(N-methyl-N-propyl-amino)-6-trifluoromethyl-pyridin-3-yl]-acrylamide], the IC50 is 480 nM.

Take `C#Cc1cc(CNC(=O)/C=C/c2ccc(C(F)(F)F)nc2N(C)CCC)cc(F)c1NS(C)(=O)=O` [Example 159, N-(3-Ethynyl-5-fluoro-4-methanesulfonylamino-benzyl)-3-[2-(N-methyl-N-propyl-amino)-6-trifluoromethyl-pyridin-3-yl]-acrylamide]: the IC50 turned out to be 270 nM.

With `CCOCc1nc(C(F)(F)F)ccc1/C=C/C(=O)NCc1ccc(NS(C)(=O)=O)c(F)c1` [Example 160, N-(3-Fluoro-4-methanesulfonylamino-benzyl)-3-(2-ethoxymethyl-6-trifluoromethyl-pyridin-3-yl)-acrylamide], the IC50 is 2400 nM.

As to `C#Cc1cc(CNC(=O)/C=C/c2ccc(C(F)(F)F)nc2COCC)cc(F)c1NS(C)(=O)=O` [Example 161, N-(3-Ethynyl-5-fluoro-4-methanesulfonylamino-benzyl)-3-(2-ethoxymethyl-6-trifluoromethyl-pyridin-3-yl)-acrylamide], the concentration for half-maximal inhibition (IC50) was 550 nM.

As to `CCC(C)Oc1nc(C(F)(F)F)ccc1/C=C/C(=O)NCc1ccc(NS(C)(=O)=O)c(C)c1` (centres unmarked) [Example 162, 3-(2-sec-Butoxy-6-trifluoromethyl-pyridin-3-yl)-N-(4-methanesulfonylamino-3-methyl-benzyl)-acrylamide], the IC50 was 120 nM.

Regarding `CC(C)Cc1nc(C(F)(F)F)ccc1/C=C/C(=O)NCc1cc(F)c(NS(C)(=O)=O)c(C#N)c1` [Example 163, N-(3-Cyano-5-fluoro-4-methanesulfonylamino-benzyl)-3-(2-isobutyl-6-trifluoromethyl-pyridin-3-yl)-acrylamide], the IC50 is 150 nM.

On to `Cc1cc(CNC(=O)/C=C/c2ccc(C(F)(F)F)nc2CC(C)C)cc(F)c1NS(C)(=O)=O` [Example 164, N-(3-Fluoro-4-methanesulfonylamino-5-methyl-benzyl)-3-(2-isobutyl-6-trifluoromethyl-pyridin-3-yl)-acrylamide], for which the IC50 worked out at 83 nM.

In the case of `C[C@@H](NC(=O)/C=C/c1ccc(C(F)(F)F)nc1N(C)c1ccccc1)c1ccc(NS(C)(=O)=O)c(F)c1` [Example 165, (R)—N-[1-(3-Fluoro-4-methanesulfonylamino-phenyl)-ethyl]-3-[2-(methyl-phenylamino)-6-trifluoromethyl-pyridin-3-yl]-acrylamide], the IC50 worked out at 160 nM.

`C#Cc1cc(CNC(=O)/C=C/c2ccc(C(F)(F)F)nc2N(C)c2ccccc2)cc(F)c1NS(C)(=O)=O` [Example 166, N-(3-Ethynyl-5-fluoro-4-methanesulfonylamino-benzyl)-3-[2-(methyl-phenylamino)-6-trifluoromethyl-pyridin-3-yl]-acrylamide]: the IC50 is 69 nM.

With `Cc1cc(CNC(=O)/C=C/c2ccc(C(F)(F)F)nc2N(C)c2ccccc2)ccc1NS(C)(=O)=O` [Example 167, N-(4-methanesulfonylamino-3-methyl-benzyl)-3-[2-(methyl-phenylamino)-6-trifluoromethyl-pyridin-3-yl]-acrylamide], the IC50 amounted to 120 nM.

On to `CCCCOc1nc(C(F)(F)F)ccc1/C=C/C(=O)NCc1cc(F)c(NS(C)(=O)=O)c(C(F)(F)F)c1` [Example 168, 3-(2-Butoxy-6-trifluoromethyl-pyridin-3-yl)-N-(3-fluoro-4-methanesulfonylamino-5-trifluoromethyl-benzyl)-acrylamide], for which the IC50 was found to be 1800 nM.

Turning to `CCCCOc1nc(C(F)(F)F)ccc1/C=C/C(=O)N[C@H](C)c1ccc(NS(C)(=O)=O)c(F)c1` [Example 169, (R)-3-(2-Butoxy-6-trifluoromethyl-pyridin-3-yl)-N-[1-(3-fluoro-4-methanesulfonylamino-phenyl)-ethyl]-acrylamide], the IC50 is 170 nM.

Take `CCCCOc1nc(C(F)(F)F)ccc1/C=C/C(=O)NCc1ccc(NS(C)(=O)=O)c(C)c1` [Example 170, 3-(2-Butoxy-6-trifluoromethyl-pyridin-3-yl)-N-(4-methanesulfonylamino-3-methyl-benzyl)-acrylamide]: the IC50 amounted to 340 nM.

For `C#Cc1cc(CNC(=O)/C=C/c2ccc(C(F)(F)F)nc2SCC)cc(F)c1NS(C)(=O)=O` [Example 171, 3-(2-Ethylthio-6-trifluoromethyl-pyridin-3-yl)-N-(3-ethynyl-5-fluoro-4-methanesulfonylamino-benzyl)-acrylamide], the IC50 was determined as 180 nM.

As to `Cc1cc(CNC(=O)/C=C/c2ccc(C(F)(F)F)nc2CCc2ccccc2)ccc1NS(C)(=O)=O` [Example 172, N-(4-Methanesulfonylamino-3-methyl-benzyl)-3-(2-phenethyl-6-trifluoromethyl-pyridin-3-yl)-acrylamide], the IC50 was 69 nM.

As for `Cc1cc(CNC(=O)/C=C/c2ccc(C(F)(F)F)nc2CCc2ccccc2)cc(F)c1NS(C)(=O)=O` [Example 173, N-(3-Fluoro-4-methanesulfonylamino-5-methyl-benzyl)-3-(2-phenethyl-6-trifluoromethyl-pyridin-3-yl)-acrylamide], the IC50 was determined as 200 nM.

Consider `Cc1cc(CNC(=O)/C=C/c2ccc(C(F)(F)F)nc2CC(C)C)ccc1NS(C)(=O)=O` [Example 174, 3-(2-Isobutyl-6-trifluoromethyl-pyridin-3-yl)-N-(4-methanesulfonylamino-3-methyl-benzyl)-acrylamide], for which the IC50 stood at 70 nM.

Consider `CC(C)Cc1nc(C(F)(F)F)ccc1/C=C/C(=O)N[C@H](C)c1ccc(NS(C)(=O)=O)c(F)c1` [Example 175, (R)—N-[1-(3-Fluoro-4-methanesulfonylamino-phenyl)-ethyl]-3-(2-isobutyl-6-trifluoromethyl-pyridin-3-yl)-acrylamide], for which the IC50 amounted to 24 nM.

On to `CCC(C)Nc1nc(C(F)(F)F)ccc1/C=C/C(=O)NCc1ccc(NS(C)(=O)=O)c(C)c1` (centres unmarked) [Example 176, 3-(2-sec-Butylamino-6-trifluoromethyl-pyridin-3-yl)-N-(4-methanesulfonylamino-3-methyl-benzyl)-acrylamide], for which the IC50 stood at 57 nM.

In the case of `C#Cc1cc(CNC(=O)/C=C/c2ccc(C(F)(F)F)nc2SC(C)C)cc(F)c1NS(C)(=O)=O` [Example 177, N-(3-Ethynyl-5-fluoro-4-methanesulfonylamino-benzyl)-3-(2-isopropylthio-6-trifluoromethyl-pyridin-3-yl)-acrylamide], the IC50 stood at 200 nM.

`CC(C)Sc1nc(C(F)(F)F)ccc1/C=C/C(=O)NCc1ccc(NS(C)(=O)=O)c(F)c1` [Example 178, N-(3-Fluoro-4-methanesulfonylamino-benzyl)-3-(2-isopropylthio-6-trifluoromethyl-pyridin-3-yl)-acrylamide]: the IC50 turned out to be 920 nM.

Consider `CS(=O)(=O)Nc1ccc(CNC(=O)/C=C/c2ccc(C(F)(F)F)nc2-c2cccc(F)c2)cc1F` [Example 179, N-(3-Fluoro-4-methanesulfonylamino-benzyl)-3-[2-(3-fluoro-phenyl)-6-trifluoromethyl-pyridin-3-yl]-acrylamide], for which the IC50 was 780 nM.

Turning to `Cc1cc(CNC(=O)/C=C/c2ccc(C(F)(F)F)nc2-c2cccc(F)c2)cc(F)c1NS(C)(=O)=O` [Example 180, N-(3-Fluoro-4-methanesulfonylamino-5-methyl-benzyl)-3-[2-(3-fluoro-phenyl)-6-trifluoromethyl-pyridin-3-yl]-acrylamide], the IC50 was found to be 460 nM.

As usually defined, the IC50 is the concentration that gives 50% inhibition.

These data come from patent US7858621B2 (Amorepacific Corporation, priority 2006, dated 2010).
